Measured values reported in paper PMC5805629 (Journal of medicinal chemistry, 2018).
Blank lines part the entries; values can stand above or below the compound they belong to.

Key:
human P-gp [1] = biological target: T1, human P-gp (Homo sapiens, UniProt P08183); conditions: 20 min, 2.5 µM, pH 6.8
CYP3A4 = CYP3A4 (Homo sapiens, UniProt P08684); test: In vitro CYP3A4 enzyme inhibition assay; type: in vitro ADME; conditions: 25 μM
[2] = test system: parental and resistant cell lines; test: Preliminary cytotoxicity of reversal compounds treated alone; type: cell-based; conditions: 5 μM concentration
MDR reversal = type: cell-based; conditions: human
HEK 293-pcDNA 3.1 cells = test: MDR reversal; type: cell-based; conditions: 72 h, read-out: IC50 ± SD of paclitaxel
human P-gp [3] = biological target: T1, human P-gp; conditions: read-out: [125I]-IAAP labeling IC50; inhibition of photolabeling of P-gp; cited from earlier work
[4] = test system: SW620/Ad300 drug-resistant cell lines; conditions: cited from earlier work
tumor = conditions: mice; no apparent side-effects; cited from earlier work
[5] = test system: SW620/Ad300 drug-resistant cell lines; conditions: 10 μM in vitro; cited from earlier work

T1 sequence (P08183 whole entry): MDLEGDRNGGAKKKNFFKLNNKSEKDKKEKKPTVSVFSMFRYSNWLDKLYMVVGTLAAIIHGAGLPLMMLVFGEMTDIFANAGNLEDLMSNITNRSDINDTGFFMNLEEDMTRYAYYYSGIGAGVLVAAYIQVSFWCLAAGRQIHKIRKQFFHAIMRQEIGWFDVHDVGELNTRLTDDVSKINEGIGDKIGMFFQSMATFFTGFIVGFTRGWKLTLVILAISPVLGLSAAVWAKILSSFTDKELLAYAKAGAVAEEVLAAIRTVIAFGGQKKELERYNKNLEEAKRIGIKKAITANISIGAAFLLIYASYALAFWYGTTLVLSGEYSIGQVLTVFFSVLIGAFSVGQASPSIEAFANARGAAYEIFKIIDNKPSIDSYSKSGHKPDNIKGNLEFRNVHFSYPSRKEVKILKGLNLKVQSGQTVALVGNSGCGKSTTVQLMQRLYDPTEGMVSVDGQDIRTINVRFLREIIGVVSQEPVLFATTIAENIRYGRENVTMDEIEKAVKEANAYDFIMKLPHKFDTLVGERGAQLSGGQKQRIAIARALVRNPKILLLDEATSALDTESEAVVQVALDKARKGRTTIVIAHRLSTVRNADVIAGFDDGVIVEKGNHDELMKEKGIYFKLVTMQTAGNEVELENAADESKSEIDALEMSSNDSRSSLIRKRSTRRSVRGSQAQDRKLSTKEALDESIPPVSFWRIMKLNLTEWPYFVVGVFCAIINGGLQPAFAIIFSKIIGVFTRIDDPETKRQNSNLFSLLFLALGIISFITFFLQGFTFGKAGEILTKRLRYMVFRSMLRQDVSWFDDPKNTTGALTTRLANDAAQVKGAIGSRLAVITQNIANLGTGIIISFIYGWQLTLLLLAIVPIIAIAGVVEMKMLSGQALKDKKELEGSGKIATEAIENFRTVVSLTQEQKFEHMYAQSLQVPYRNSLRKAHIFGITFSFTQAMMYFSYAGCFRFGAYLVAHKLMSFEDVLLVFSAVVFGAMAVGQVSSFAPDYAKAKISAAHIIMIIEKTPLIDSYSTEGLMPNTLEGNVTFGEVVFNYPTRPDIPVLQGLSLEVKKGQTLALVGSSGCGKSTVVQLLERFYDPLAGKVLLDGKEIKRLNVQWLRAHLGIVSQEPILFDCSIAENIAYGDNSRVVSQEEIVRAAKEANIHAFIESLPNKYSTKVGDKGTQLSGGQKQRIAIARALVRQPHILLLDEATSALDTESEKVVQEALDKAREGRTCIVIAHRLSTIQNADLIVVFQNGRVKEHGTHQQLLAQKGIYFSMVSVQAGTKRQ
Chain of CYP3A4 (P08684 whole entry): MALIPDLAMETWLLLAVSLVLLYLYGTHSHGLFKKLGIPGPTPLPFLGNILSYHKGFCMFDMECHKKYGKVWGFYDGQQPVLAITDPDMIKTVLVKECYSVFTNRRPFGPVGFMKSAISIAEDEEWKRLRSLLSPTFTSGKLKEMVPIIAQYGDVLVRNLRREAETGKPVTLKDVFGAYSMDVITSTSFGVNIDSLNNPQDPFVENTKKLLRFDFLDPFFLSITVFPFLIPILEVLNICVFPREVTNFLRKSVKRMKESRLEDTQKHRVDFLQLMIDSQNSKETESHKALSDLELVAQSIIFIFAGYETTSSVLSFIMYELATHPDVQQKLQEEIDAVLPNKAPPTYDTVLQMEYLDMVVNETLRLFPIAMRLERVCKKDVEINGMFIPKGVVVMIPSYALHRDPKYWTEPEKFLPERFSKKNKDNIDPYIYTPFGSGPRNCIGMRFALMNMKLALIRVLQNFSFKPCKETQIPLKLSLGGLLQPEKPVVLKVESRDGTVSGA

SMILES: COc1cc(C(=O)N[C@H](c2nc(C(=O)NCC3CCC(F)(F)CC3)cs2)C(C)C)cc(OC)c1OC [Compound 63, (S)-N-((4,4-Difluorocyclohexyl)methyl)-2-(2-methyl-1-(3,4,5-trimethoxybenzamido)propyl)thiazole-4-carboxamide]
ATPase activity % Stimulation (human P-gp [1]): 21%

SMILES: COc1cc(C(=O)N[C@H](c2nc(C(=O)NC3CCNCC3)cs2)C(C)C)cc(OC)c1OC [Compound 42, (S)-2-(2-Methyl-1-(3,4,5-trimethoxybenzamido)propyl)-N-(piperidin-4-yl)thiazole-4-carboxamide]
ATPase activity % Stimulation (human P-gp [1]): 15%

SMILES: O[C@@H](COc1cccc2ncccc12)CN1CCN([C@@H]2c3ccccc3[C@@H]3[C@H](c4ccccc42)C3(F)F)CC1 [Zosuquidar, zosuquidar]
cytotoxicity [2]: cytotoxic

SMILES: COc1cc(C(=O)N[C@H](c2nc(C(=O)Nc3ccccc3C(=O)c3ccccc3)cs2)C(C)C)cc(OC)c1OC [Compound 1, (S)-N-(2-benzoylphenyl)-2-(2-methyl-1-(3,4,5-trimethoxybenzamido)propyl)thiazole-4-carboxamide]
IC50 (human P-gp [3]): 720 nM | intracellular paclitaxel concentration [4]: increased intracellular paclitaxel concentration | tumor volume and tumor weight (tumor): reduced tumor volume and tumor weight | reversal of resistance to paclitaxel, doxorubicin and vincristine [5]: significant reversal of resistance

Further lines, with some results ahead:

CYP3A4 Inhibition (%) (CYP3A4): did not inhibit
SMILES: COc1cc(C(=O)NC(Cc2ccccc2)c2nc(C(=O)NC3CCC(F)(F)CC3)cs2)cc(OC)c1OC (stereo not shown) [Compound 109, N-(4,4-Difluorocyclohexyl)-2-(2-phenyl-1-(3,4,5-trimethoxybenzamido)ethyl)thiazole-4-carboxamide]

IC50 at 72 h (MDR reversal): 2050 ± 87 nM
SMILES: CC(=O)O[C@H]1C(=O)[C@@]2(C)[C@H]([C@H](OC(=O)c3ccccc3)[C@]3(O)C[C@H](OC(=O)[C@H](O)[C@@H](NC(=O)c4ccccc4)c4ccccc4)C(C)=C1C3(C)C)[C@]1(OC(C)=O)CO[C@@H]1C[C@@H]2O [Paclitaxel, paclitaxel]
IC50 (HEK 293-pcDNA 3.1 cells): 71 ± 15 nM
